# According to US20130296426A1, “ANALGESIC” (NAGOYA INDUSTRIAL SCIENCE RESEARCH INSTITUTE, priority 2011, published 2013):
# Experiments:
# Format in all cases: in vivo, rat
# [1] = test system: MIA-induced OA rats; assay: von Frey test, repeated administration to MIA-induced OA rats; conditions: for Recovery rate of 50% reaction threshold value (%): repeated administration, 1 hour after administration of test drug
# Protocol: Selection of the normal control group and preparation of MIA-induced OA rats were conducted in the same manner as in the above 1.(1).
# (§1) With regard to the male Wistar rats of six weeks age used as experimental animals except the normal control group, their 50% reaction threshold values to the mechanical stimulus, weight bearing rate to a MIA-non-administered hind paw (the measuring method will be mentioned later) and body weights were measured after 27 days from the administration of MIA mentioned in (1) and then four groups each comprising six rats [a normal control group, an onset control group, a test drug-administered group and a LOX-administered group (a positive control)] were organized.
# A test drug solution and an LOX suspension were prepared in the same manner as in the above 1.(2).
# (§2) During eight days from immediately after the grouping (after 27 to 34 days from the administration of MIA), a test drug solution was intraperitoneally administered in repeated dose of 0.5 mg/kg to a test drug-administered group while, a LOX suspension was orally administered in repeated dose of 5 mg/kg to a LOX-administered group. Meanwhile, to the normal control group and the onset control group, PBS containing 0.1 vol % of DMSO was intraperitoneally administered repeatedly.
# In the same manner as in the above 1.(4), the 50% reaction threshold values to the mechanical stimulus were measured after 1, 3, 5 and 24 hour(s) from the final administration of a test drug. Mean value±standard error for each group was calculated and the test for significant difference was done in the same manner as in the above 1.(4).
# The analgesic of the present invention was repeatedly administered to the MIA-induced OA rat and a von Frey test was conducted in the same manner as in the above test 1.(4) whereupon each 50% reaction threshold value was measured. With regard to the 50% reaction threshold value after 1 hour from the administration of a test drug, a recovery rate (%) of the 50% reaction threshold value was calculated in the same manner as in the above test 1.(4).
# [2] = test system: MIA-induced OA rats; assay: von Frey test, single administration to MIA-induced OA rats; conditions: for Recovery rate of 50% reaction threshold value (%): 1 hour after administration of test drug
# Protocol: There were conducted the following experiments for testing the analgesic action of the analgesic of the present invention using the osteoarthritis (OA) rats induced by sodium monoiodoacetate (MIA) which were model animals for OA.
# A 50% reaction threshold value to the mechanical stimulus of male Wistar rats of six weeks age was measured (the measuring method will be mentioned later) and a normal control group was selected. MIA prepared by saline was administered in a single dose of 0.3 mg/50 μL into right knee joint of the rats except the normal control group while 50 μL of saline was administered into left knee joint whereupon the MIA-induced OA rats were prepared. To the normal control group, 50 μL of saline was administered into the joints of both knees.
# as §1, with “stimulus” for “stimulus, weight bearing rate to a MIA-non-administered hind paw”, “24” for “27”, “4” for “four”, “loxoprofen sodium hydrate (LOX)-administered” for “LOX-administered”
# A test drug solution (0.1 mg/mL) using the compound 4 as a test drug and a LOX suspension (1 mg/mL) were prepared using a phosphate buffered saline (PBS) containing 0.1 vol % of dimethyl sulfoxide (DMSO) and a 0.5 w/v % aqueous solution of carboxymethyl cellulose, respectively.
# as §2, with “Immediately” for “During eight days from immediately”, “24” for “27 to 34”, “a single” for “repeated”, “in a single dose.” for “repeatedly.”
# The four groups of rats of the above (2) were placed in a transparent acrylic cage with a wire-meshed floor and habituated for about three minutes and the 50% reaction threshold values to the mechanical stimulus were measured after 1, 3, 5 and 24 hours from the administration of a test drug.
# The measurement was conducted using von Frey filaments (manufactured by North Coast Medical Inc.) in accordance with the methods of Chaplan, et al. (Journal of Neuroscience Methods, vol. 53, no. 1, pages 55 to 63, 1994) and Dixon, et al. (Annual Review of Pharmacology and Toxicology; vol. 20, pages 441 to 462, 1980). […] The case where the rat escaped at the instance of removing the filament was also called positive. When the positive reaction was noted, stimulus was conducted similarly using a filament of one rank weaker while, when no reaction was noted, stimulus was conducted similarly using a filament of one rank stronger and the point when the reaction changed from negative to positive or from positive to negative was called the first two reactions. After that, stimulus was conducted for continuous four times by the same up-down method. A 50% reaction threshold value to the mechanical stimulus was measured using the reaction to the six stimuli in total and then (mean value)±(standard error) for each group was calculated. Incidentally, when stimulus reached by that of 15.0 g without positive reaction or, when positive reaction continued to 0.4 g, then 15.0 g or 0.25 g was adopted as each threshold value, respectively.
# The test for significant difference was performed using the test in two groups (Student's t-test or Welch test) or Wilcoxon test between the normal control group and the onset control group, between the onset control group and the test drug-administered group, between the onset control group and the LOX-administered group and between the test drug-administered group and the LOX-administered group. […]
# [3] = test system: experimental autoimmune neuritis (EAN) rats; assay: von Frey test in Guillain-Bareé syndrome model (EAN) rats
# Protocol: The following experiment for checking the analgesic action of the analgesic of the present invention was conducted using the experimental autoimmune neuritis (EAN) rats which were the model animals for Guillain-Bareé syndrome having an on set of chronic pain.
# The 50% reaction threshold value to mechanical stimulus of female Lewis rats of seven weeks age were measured to select a normal control group. Left hind paw of each of the anesthetized rats except the normal control group was immunized by subcutaneous administration of 0.1 mL of an emulsion prepared by equivalent mixing of a 2 mg/mL solution of a peptide derived from bovine P2 protein (SP-26) with an adjuvant complete Freund H37Ra whereupon EAN rats were prepared.
# The grouping was conducted and a test drug was administered in the same manner as in (2) and (3) of the Pharmacological Test II.
# A von Frey test was carried out in the same manner as in 1.(4) of the above Pharmacological Test I to measure the 50% reaction threshold value to the mechanical stimulus to each group over time. The test for significant difference was conducted and recovery rate (%) of the 50% reaction threshold value was calculated in the same manner as in (4) of the above Pharmacological Test II.
# [4] = test system: MIA-induced OA rats; assay: Weight bearing rate to MIA-non-administered hind paw (dual channel weight averager), repeated administration
# Protocol: as §2
# One hind paw of a rat where OA was induced by administration of MIA develops a pain symptom. Therefore, a body weight bearing to a painless hind paw to which no MIA was administered increases in a rat for avoiding the application of body weight to the hind paw after administration of MIA. […] Using this weight bearing rate to the MIA-non-administered hind paw as an index, the analgesic action of the analgesic of the present invention was measured.
# The weight bearing rate to the MIA-non-administered hind paw was determined by the following formula after measuring the weight distribution to right and left hind paws of a rat using a device for evaluating the analgesic effect for small animals (Incapacitance Tester manufactured by Linton Instrumentation). Mean value±standard error for each group was also calculated and the test for significant difference was carried out in the same manner as in the above 1.(4). […]
smiles,measurement,setting,value
"CCCCCCC/C=C/C(=O)OC [Compound 3, Trans-2-decenoic acid methyl ester]",Recovery rate of 50% reaction threshold value (%),[1],23.3%
same,Recovery rate of 50% reaction threshold value (%),[2]; single dose,32.4%
"CCCCCCC/C=C/C(=O)OCC [Compound 4, Trans-2-decenoic acid ethyl ester]",Recovery rate of 50% reaction threshold value (%),"[3]; 0.25 mg/kg/day intraperitoneal once daily, After 8 days",100.0^[…] %
same,Recovery rate of 50% reaction threshold value (%),"[3]; 0.25 mg/kg/day intraperitoneal once daily, After 11 days",40.1^[…] %
same,Recovery rate of 50% reaction threshold value (%),"[3]; 0.25 mg/kg/day intraperitoneal once daily, After 25 days",21.7^[…] %
same,Recovery rate of 50% reaction threshold value (%),"[3]; 0.25 mg/kg/day intraperitoneal once daily, After 28 days",24.2^[…] %
same,Recovery rate of 50% reaction threshold value (%),"[3]; 0.50 mg/kg/day intraperitoneal once daily, After 8 days",98.5^[…] %
same,Recovery rate of 50% reaction threshold value (%),"[3]; 0.50 mg/kg/day intraperitoneal once daily, After 11 days",35.5%
same,Recovery rate of 50% reaction threshold value (%),"[3]; 0.50 mg/kg/day intraperitoneal once daily, After 25 days",38.3^[…] %
same,Recovery rate of 50% reaction threshold value (%),"[3]; 0.50 mg/kg/day intraperitoneal once daily, After 28 days",38.3^[…] %
same,weight bearing rate to the MIA-non-administered hind paw,"[4]; repeated intraperitoneal 0.5 mg/kg for eight days, vs onset control group, FIG. 3",significantly decreased
same,50% reaction threshold value to the mechanical stimulus,"[1]; repeated intraperitoneal 0.5 mg/kg for eight days, after 1 and 3 hour(s) from the final administration, vs onset control group, FIG. 2",significantly high
same,Recovery rate of 50% reaction threshold value (%),[2]; single dose,61.6%
same,50% reaction threshold value to the mechanical stimulus,"[2]; single intraperitoneal dose 0.5 mg/kg, 24 days after MIA, vs onset control group, FIG. 1",significantly high
"CCCCCCC/C=C/C(=O)OCCC [Compound 5, Trans-2-decenoic acid propyl ester]",Recovery rate of 50% reaction threshold value (%),[2]; single dose,8.1%
"CCCCCCC/C=C/COC(=O)/C=C/CCCCCCC [Compound 16, Trans-2-decenoic acid trans-2-decenyl ester]",weight bearing rate to the MIA-non-administered hind paw,"[4]; repeated intraperitoneal 0.5 mg/kg/day, FIG. 4",significantly lowered
same,Recovery rate of 50% reaction threshold value (%),[1],61.4%
same,Recovery rate of 50% reaction threshold value (%),[2]; single dose,39.6%
"C=CCCCCCCCCOC(=O)/C=C/CCCCCCC [Compound 17, Trans-2-decenoic acid trans-9-decenyl ester]",Recovery rate of 50% reaction threshold value (%),[2]; single dose,19.5%
"CCCCCCC/C=C/C(=O)OC1CCCCC1 [Compound 18, Trans-2-decenoic acid cyclohexyl ester]",Recovery rate of 50% reaction threshold value (%),[1],32.6%
same,Recovery rate of 50% reaction threshold value (%),[2]; single dose,20.8%
"CCCCCC/C=C/CC(=O)OCC [Compound 20, Trans-3-decenoic acid ethyl ester]",Recovery rate of 50% reaction threshold value (%),[1],66.3%
same,Recovery rate of 50% reaction threshold value (%),[2]; single dose,17.7%
"CC(C(=O)O)c1ccc(CC2CCCC2=O)cc1 (stereo not shown) [LOX, loxoprofen sodium hydrate, reference compound]",suppressive action to hyperalgesia (50% reaction threshold value),"[2]; single oral dose 5 mg/kg, 24 days after MIA, vs onset control group, FIG. 1",no significant suppressive action to hyperalgesia
"CCCCCCC/C=C/C(=O)O [trans-2-decenoic acid, reference compound]",suppressive effect for hyperalgesia (50% reaction threshold value before vs after 1 hour from administration),"[2]; single dose, 1 hour after administration",no suppressive effect for hyperalgesia
